# In patent US20230390356A1, “HAIR GROWTH AGENT” (ADJUVANT HOLDINGS CO., LTD., priority 2020, published 2023):
# Legend:
# [1] = test system: hair shafts (zigzag hairs) of skin samples transplanted in Balb/c nu/nu mice; assay: Measurement of increase in hair diameter on hair shafts from Exemplary Test 1; type: in vivo
# Protocol: Measurement of increase in hair diameter was carried out using hair shafts that had completed the second cycle at the foregoing Exemplary Test 1. Of the hair shafts that were collected, three zigzag hairs were used for measurement of increase in hair diameter. Three locations were selected in regions where diameter was large in the central portions thereof using a square […] on a side. For each of the selected regions, five different locations were further selected, and hair shaft diameter of the zigzag hairs thereat was measured to evaluate the degree to which increase in hair diameter had occurred.
# Here, ** at FIG. 2 and TABLE 2 indicates p<0.01, i.e., that the results are significant.
# FGF-7 gene = FGF-7 gene expression in human dermal papilla cells by real-time PCR; type: cell-based; settings: 24 hours, FIG. 4
# Protocol: Testing and evaluation were carried out with maintenance and culture of human dermal papilla cells being performed in the same manner as at Exemplary Test 3, above.
# As drugs for testing, drug solutions of the following respective concentrations (final concentrations) were prepared and used. • Comparative Example 1: 100 μM adenosine • Working Example 1: 1 μM palmitoyl dipeptide-5 diaminobutyloyl hydroxythreonine • Working Example 2: 10 μM palmitoyl dipeptide-5 diaminobutyloyl hydroxythreonine • Working Example 3: 300 μM palmitoyl dipeptide-5 diaminobutyloyl hydroxythreonine
# A 24-well plate was seeded with human dermal papilla cells so as to obtain 6×10^3 thereof per well. […]
# Following culture, total RNA was extracted from the respective wells and was recovered, and this was reverse-transcribed into cDNA. […] The GAPDH gene was used as an internal standard, the amount of FGF-7 gene expression being calculated relative to the negative control group.
# A FastGene RNA Basic Kit (Catalog No. FG-80250; Nippon Genetics Co., Ltd. (Japan)) was used to recover total RNA from cells. […] Concentration of the recovered RNA was measured using a NanoDrop Lite (Catalog No. ND-LITE; Thermo Fisher Scientific K.K.), and this was stored at −80° C. until the following cDNA creation procedure. […]
# [2] = test system: human dermal papilla cells; assay: Dermal papilla cell growth promotion (Cell Count Reagent SF absorbance); type: cell-based; settings: 10.268375 to 328.588 μM
# Protocol: Human dermal papilla cells (Catalog No. CA602t05a: derived from person: Toy obo Co., Ltd. (Japan)) were purchased, testing and evaluation being carried out with maintenance and culture of cells being performed as described in the protocol.
# As drugs for testing, drug solutions consisting of culture medium for human dermal papilla cells containing palmitoyl dipeptide-5 diaminobutyloyl hydroxythreonine in the following respective concentrations (final concentrations) were prepared, and these were used. • Working Example 1: 10.268375 μM • Working Example 2: 20.53675 μM • Working Example 3: 41.0735 μM • Working Example 4: 82.147 μM • Working Example 5: 164.294 μM • Working Example 6: 328.588 μM
# A 96-well plate was seeded with human dermal papilla cells so as to obtain 1×10^3 thereof per well. […] After this had been added thereto, absorbance (measurement wavelength 450 nm; reference wavelength 620 nm) of the culture supernatant was measured. Based on these values, the cell growth rates at the respective wells were calculated, at which time the cell growth rate of the control group at which nothing had been added was taken to be 100%.
# [3] = test system: skin samples derived from dorsal body hair skin transplanted in Balb/c nu/nu mice; assay: Evaluation of hair growth activity: drug applied on skin samples from mouse dorsal body hair skin grafted onto Balb/c nu/nu mice; type: in vivo
# Protocol: C57BL/6N mice (male) and Balb/c nu/nu mice (female) were purchased from Japan SLC, Inc.(Japan) and bred, and were thereafter made available for the following testing. Note that the testing and breeding of animals complied with pertinent laws, regulations, ordinances, and guidelines, and was performed with the approval of the Experimental Ethics Review Board of the Institute of Physical and Chemical Research.
# The following reagents were respectively prepared. • Placebo: 60% aqueous ethanol solution • Working Example 1: 0.05% solution of palmitoyl dipeptide-5 diaminobutyloyl hydroxythreonine
# To collect dorsal body hair skin in the form of anagen stage VI skin 12 to 14 days following depilation. C57BL/6N mice of age 7 to 8 weeks were depilated at locations where dorsal body hair skin was intended to be collected, and were bred for 12 to 14 days. The depilated C57BL/6N mice were thereafter euthanized by cervical dislocation, following which a suitable amount of dorsal body hair skin was collected from the locations at which dorsal body hair skin was intended to be collected.
# The collected skin was immersed in DMEM culture medium (hereinafter “DMEM 10”) which contained 10 mM HEPES, 10% fetal bovine serum, and 1% penicillin/streptomycin solution. The collected dorsal body hair skin was grasped with bent-nose curved tweezers and was treated by immersion for 10 seconds in a sterilizing solution. Sterilization treatment was performed by carrying out treatment with 7% povidone iodine solution two times, treatment with PBS (−) three times, and treatment with DMEM 10 two times, in this order, with fresh solutions respectively being used each time. Following sterilization treatment, these were immersed in clean DMEM 10.
# Following sterilization treatment, the dorsal body hair skin was cut into pieces and formed into blocks. The transparent connective tissue which adhered to the cutaneous muscle layer of the skin was excised therefrom using curved scissors, and hair groups were cut into rectangular strips in parallel fashion with respect to the direction of the wave of the hair. At this time, these were cut into blocks such that there were 6 rows of hair follicles along the long axis, adjustment having been carried out so that there were 5 rows of hair follicles along the short axis.
# The skin samples derived from dorsal body hair skin that were prepared in accordance with the foregoing were grafted onto Balb/c nu/nu mice of age 4 to 6 weeks.
# More specifically, mice were anesthetized in the usual way using isoflurane gas. The dorsal area of the mice was then disinfected using 7% povidone iodine solution, following which the mice were made to assume a naturally recumbent posture. In addition, a Mani ophthalmic knife (Mani, Inc.; Japan) was used to pierce the skin at the dorsal area of the mice, the grafts which were formed extending from the epidermal layer of the skin to the subdermal layer. The skin samples derived from dorsal body hair skin were inserted into the grafts formed thereat in such fashion as to cause the hair groups to be directed toward the body surface side of the grafts. Skin sample transplanted depth was adjusted so as to cause the top portion of the hair group to be in a state such that it was exposed at the top portion of the graft. To protect the grafts, Nurseban (registered trademark) (Sunplanet Co., Ltd.; Japan) and surgical tape (3M Japan Limited; Japan) were then used as protective tape to cover the grafts at which the skin samples derived from dorsal body hair skin had been transplanted. The protective tape was removed 5 to 7 days following transplantation, and survival of the transplanted skin samples derived from dorsal body hair skin was determined by visual inspection or digital microscopy (Keyence Corporation: Japan), after which follow-up observation was carried out.
# For the first hair cycle, 60% aqueous ethanol solution was applied thereto as placebo. […]
# [4] = 0.05% solution applied topically to transplanted skin samples, second hair cycle
# [5] = 0.05% solution, second hair cycle vs placebo applied in first hair cycle
substance,measurement,setting,value
palmitoyl dipeptide-5 diaminobutyloyl hydroxythreonine,Hair diameter as compared with 60% aqueous ethanol control (in words),[1]; 0.05% solution,clear increase in hair diameter
same,"Hair shaft diameter, percent increase",[1]; second hair cycle vs placebo applied in first hair cycle,137%
same,Hair shaft diameter,"[1]; zigzag hairs after second hair cycle, 0.05% solution, p<0.01",22.0 ± 1.6 ** μm
same,Amount of expression of FGF-7 gene as compared with control group (in words),FGF-7 gene; 1 μM and 10 μM,increase in the amount of expression of the FGF-7 gene
same,Amount of expression of FGF-7 gene compared with 100 μM adenosine (in words),FGF-7 gene; increased amount added,greater than that which was produced as a result of action of adenosine
same,Cell growth rate as compared with control group at which nothing had been added (in words),"[2]; 24, 48 or 72 hours, FIG. 3",increase in cell growth rate
same,Concentration dependence of cell growth rate (in words),[2]; within concentration domain tested,increased in concentration-dependent fashion
same,Hair shaft elongation rate,[3]; [4],0.40 ± 0.08 mm/day
same,Maximum hair shaft length,[3]; [4],5.1 ± 0.3 mm
same,"Hair shaft elongation rate, percent change relative to reference data",[3]; [5],110.45%
same,"Maximum hair shaft length, percent change relative to reference data",[3]; [5],103.27%
same,Hair growth activity (in words),[3]; solution containing 0.05%,exhibit hair growth activity
same,Hair shaft elongation rate as compared with reference data (in words),[3]; solution containing 0.05%,significant improvement
same,Maximum hair shaft length as compared with reference data (in words),[3]; solution containing 0.05%,significant improvement
